Assay results taken from patent US4450269A, “Mono-5-substituted-3-chloro-4H-1,2,6-thiadiazin-4-one antifungal agents” (FMC Corporation, priority 1980, dated 1984).

Tests used:
Rhizoctonia solani = experiment: Mycelial growth test; format: cell-based; details: Rhizoctonia solani, 72 h, RS, read-out: Percent Fungus Growth Inhibition
Description: | RS = Rhizoctonia solani

Erysiphe polygoni = experiment: whole plant or invertebrate; details: foliar, 24 h, read-out: Percent Disease Control, curative, bean powdery mildew

Compound | inhibition at 5 ppm (Rhizoctonia solani) [%] | inhibition at 10 ppm (Rhizoctonia solani) [%] | inhibition at 20 ppm (Rhizoctonia solani) [%] | inhibition at 40 ppm (Rhizoctonia solani) [%] | pest or weed control at 150 ppm (Erysiphe polygoni) [%]
Cc1ccccc1Oc1nsnc(Cl)c1=O [Compound 22, 3-chloro-5-(2-methylphenoxy)-4H--1,2,6-thiadiazin-4-one] | 42 | 62 | 91 | 100 | 100
O=c1c(Cl)nsnc1Oc1cc(Cl)cc(Cl)c1 [Compound 20, 3-chloro-5-(3,5-dichlorophenoxy)-4H--1,2,6-thiadiazin-4-one] | 51 | 58 | 76 | 78 | 100
O=c1c(Cl)nsnc1Oc1ccccc1Cl [Compound 14, 3-chloro-5-(2-chlorophenoxy)-4H--1,2,6-thiadiazin-4-one] | 53 | 56 | 76 | 91 | 50
O=c1c(Cl)nsnc1Oc1ccccc1 [Compound 2, 3-chloro-5-phenoxy-4H--1,2,6-thiadiazin-4-one] | 0 | 42 | 100 | 78 | 100
Cc1cc(Cl)c(Oc2nsnc(Cl)c2=O)cc1C [Compound 58, 3-chloro-5-[(2-chloro-4,5-dimethyl)phenoxy]-4H--1,2,6-thiadiazin-4-one] | 56 | 58 | 53 | 64 | 50
CC(=O)Nc1cccc(Oc2nsnc(Cl)c2=O)c1 [Compound 42, 3-[(3-N--acetylamino)-phenoxy]-5-chloro-4H--1,2,6-thiadiazin-4-one] | 0 | 4 | 31 | 67 | 0
O=c1c(Cl)nsnc1Oc1ccccc1Br [Compound 34, 3-chloro-5-(2-bromophenoxy)-4H-1,2,6,-thiadiazin-4-one] | 24 | 64 | 76 | 100 | 95
C[S+]([O-])c1ccc(Oc2nsnc(Cl)c2=O)cc1 (stereo not shown) [Compound 40, 3-chloro-5-[(4-methylsulfinyl)phenoxy]-4H-1,2,6,-thiadiazin-4-one] | 0 | 0 | 24 | 53 | 0
Cc1ccc(Oc2nsnc(Cl)c2=O)cc1 [Compound 3, 3-chloro-5-(4-methylphenoxy)-4H--1,2,6-thiadiazin-4-one] | 0 | 20 | 56 | 100 | 0
O=c1c(Cl)nsnc1Oc1cccc(C(F)(F)F)c1 [Compound 44, 3-chloro-5-[(3-trifluoromethyl)phenoxy]-4H--1,2,6-thiadiazin-4-one] | 82 | 80 | 96 | 100 | 100
CC(=O)c1ccc(Oc2nsnc(Cl)c2=O)cc1 [Compound 47, 3-(4-acetylphenoxy)-5-chloro-4H--1,2,6-thiadiazin-4-one] | 58 | 47 | 69 | 78 | 0
CCOC(=O)c1ccc(Oc2nsnc(Cl)c2=O)cc1 [Compound 7, 3-chloro-5-(4-ethoxycarbonylphenoxy)-4H--1,2,6-thiadiazin-4-one] | 7 | 33 | 53 | 76 | 0
CC(=O)Nc1ccccc1Oc1nsnc(Cl)c1=O [Compound 43, 3-[(2-acetylamino)-phenoxy]-5-chloro-4H--1,2,6-thiadiazin-4-one] | 0 | 0 | 11 | 24 | 0
O=c1c(Cl)nsnc1Oc1c(Cl)cccc1Cl [Compound 18, 3-chloro-5-(2,6-dichlorophenoxy)-4H--1,2,6-thiadiazin-4-one] | 42 | 56 | 76 | 87 | 100
Cc1ccc(Oc2nsnc(Cl)c2=O)c(C)c1 [Compound 23, 3-chloro-5-(2,4-dimethylphenoxy)-4H--1,2,6-thiadiazin-4-one] | 20 | 53 | 73 | 78 | 0
CC(C)(C)c1ccc(Oc2nsnc(Cl)c2=O)cc1 [Compound 4, 3-chloro-5-(4-tert-butylphnoxy)-4H--1,2,6-thiadiazin-4-one] | 0 | 0 | 0 | 0 | 100
N#Cc1ccc(Oc2nsnc(Cl)c2=O)cc1 [Compound 10, 3-chloro-5-(4-cyanophenoxy)-4H--1,2,6-thiadiazin-4-one] | 9 | 13 | 100 | 100 | 0
O=c1c(Cl)nsnc1Oc1ccc(Cl)c(Cl)c1 [Compound 16, 3-chloro-5-(3,4-dichlorophenoxy)-4H--1,2,6-thiadiazin-4-one] | 29 | 31 | 31 | 69 | 0

Compound | inhibition at 5 ppm (Rhizoctonia solani) [%] | inhibition at 10 ppm (Rhizoctonia solani) [%] | inhibition at 20 ppm (Rhizoctonia solani) [%] | inhibition at 40 ppm (Rhizoctonia solani) [%] | pest or weed control at 150 ppm (Erysiphe polygoni) [%]
CC(=O)Nc1ccc(Oc2nsnc(Cl)c2=O)cc1 [Compound 8, 5-(4-acetylaminophenoxy)-3-chloro-4H--1,2,6-thiadiazin-4-one] | 0 | 0 | 7 | 42 | 0
CCCCOc1ccc(Oc2nsnc(Cl)c2=O)cc1 [Compound 6, 3-chloro-5-(4-n-butoxyphenoxy)-4H--1,2,6-thiadiazin-4-one] | 0 | 0 | 0 | 20 | 100
CNC(=O)Nc1ccc(Oc2nsnc(Cl)c2=O)cc1 [Compound 28, 3-chloro-5-[4-(3-methylureido)-phenoxy]-4H--1,2,6-thiadiazin-4-one] | 20 | 47 | 24 | 47 | 50
O=c1c(Cl)nsnc1Oc1ccc(Cl)cc1Cl [Compound 17, 3-chloro-5-(2,4-dichlorophenoxy)-4H--1,2,6-thiadiazin-4-one] | 40 | 53 | 76 | 76 | 100
O=c1c(Cl)nsnc1Oc1c(Cl)cc(Cl)cc1Cl [Compound 30, 3-chloro-5-(2,4,6-trichlorophenoxy)-4H--1,2,6-thiadiazin-4-one] | 42 | 62 | 69 | 80 | 100
CS(=O)(=O)c1ccc(Oc2nsnc(Cl)c2=O)cc1 [Compound 41, 3-chloro-5-[(4-methylsulfonyl)phenoxy]-4H--1,2,6-thiadiazin-4-one] | 0 | 0 | 51 | 64 | 0
COc1ccc(Oc2nsnc(Cl)c2=O)cc1 [Compound 5, 3-chloro-5-(4-methoxyphenoxy)4H--1,2,6-thiadiazin-4-one] | 0 | 0 | 38 | 64 | 0
Cc1ccc(Cl)c(Oc2nsnc(Cl)c2=O)c1 [Compound 56, 3-chloro-5-[(2-chloro-5-methyl)phenoxy]-4H--1,2,6-thiadiazin-4-one] | 33 | 78 | 100 | 100 | 0
N#CCc1ccc(Oc2nsnc(Cl)c2=O)cc1 [Compound 46, 3-chloro-5-[(4-cyanomethyl)-phenoxy]4H--1,2,6-thiadiazin-4-one] | 27 | 56 | 64 | 100 | 0
O=C(Nc1ccccc1)Oc1ccc(Oc2nsnc(Cl)c2=O)cc1 [Compound 37, 3-chloro-5-[4-(phenylaminocarbonyloxy)phenoxy]-4H-1,2,6,-thiadiazin-4-one] | 11 | 42 | 31 | 51 | 0
O=C(Nc1ccccc1)Nc1ccc(Oc2nsnc(Cl)c2=O)cc1 [Compound 29, 3-chloro-5-[4-(3-phenylureido)-phenoxy]-4H--1,2,6-thiadiazin-4-one] | 0 | 31 | 0 | 29 | 0
Cc1cccc(C)c1Oc1nsnc(Cl)c1=O [Compound 24, 3-chloro-5-(2,6-dimethylphenoxy)-4H--1,2,6-thiadiazin-4-one] | 20 | 64 | 82 | 100 | 100
O=C(O)c1ccc(Oc2nsnc(Cl)c2=O)cc1 [Compound 50, 3-(4-carboxyphenoxy)-5-chloro-4H--1,2,6-thiadiazin-4-one] | 42 | 0 | 13 | 47 | 0
COc1ccc(Cl)c(Oc2nsnc(Cl)c2=O)c1 [Compound 51, 3-chloro-5-[(2-chloro-5-methoxy)phenoxy]-4H--1,2,6-thiadiazin-4-one] | 20 | 56 | 82 | 100 | 0
O=c1c(Cl)nsnc1Oc1ccc(O)cc1 [Compound 35, 3-chloro-5-(4-hydroxyphenoxy)-4H-1,2,6-thiadiazin-4-one] | 0 | 7 | 44 | 76 | 0
Cc1cccc(Oc2nsnc(Cl)c2=O)c1 [Compound 21, 3-chloro-5-(3-methylphenoxy)-4H--1,2,6-thiadiazin-4-one] | 53 | 64 | 87 | 100 | 100
O=c1c(Cl)nsnc1Oc1ccc(Cl)cc1 [Compound 12, 3-chloro-5-(4-chlorophenoxy)-4H--1,2,6-thiadiazin-4-one] | 20 | 58 | 64 | 100 | 50
